Measurements as given in PubChem BioAssay (NCI).
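Where inhibition never reached the appropriate level, the endpoint shown equals the highest concentration tested. Otherwise, values were interpolated linearly from a five-concentration, 48-hour dose response in 96-well plates. GI50: concentration for 50% inhibition of growth. TGI denotes the concentration required for complete inhibition of growth.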

Legend:
Assay in all cases: DTP human tumour cell line panel, 48 h
SF-268 CNS = system: SF-268 CNS
HT29 colon = system: HT29 colon
EKVX NSCLC = system: EKVX NSCLC
SNB-19 CNS = system: SNB-19 CNS
SK-MEL-28 melanoma = system: SK-MEL-28 melanoma
SF-295 CNS = system: SF-295 CNS
M14 melanoma = system: M14 melanoma
SF-539 CNS = system: SF-539 CNS
NCI-H23 lung = system: NCI-H23 lung

SMILES	TGI (SF-268 CNS) [µM]	TGI (HT29 colon) [µM]	TGI (EKVX NSCLC) [µM]	TGI (SNB-19 CNS) [µM]	TGI (SK-MEL-28 melanoma) [µM]	TGI (SF-295 CNS) [µM]	TGI (M14 melanoma) [µM]	TGI (SF-539 CNS) [µM]	TGI (NCI-H23 lung) [µM]	GI50 (SF-268 CNS) [µM]	GI50 (HT29 colon) [µM]	GI50 (SF-295 CNS) [µM]	GI50 (M14 melanoma) [µM]	GI50 (SF-539 CNS) [µM]	GI50 (NCI-H23 lung) [µM]
Nc1c(Cl)ncnc1NCCCCCCCCCCCCNc1ncnc(Cl)c1N	> 100	49.8	98.1	> 100	5.22	5.92	57.3	30.3	2.41						
Clc1cccc(C2N3CCCCC3[C@@H]3c4[nH]c5ccccc5c4CCN23)c1 (stereo not given in full)	> 100	34.2	> 100	> 100	79.9	> 100	78.5	57.7	45						
CCNC(=O)OCc1c(COC(=O)NCC)c(-c2ccc(Cl)c(Cl)c2)n2c1CCC2	32.8	> 100		68.1	36.9	36.7	24.3	25.6	26.3						
CC(=O)[C@H]1CCC2[C@@H]3CC=C4C[C@@H]([O-])CC[C@]4(C)C3CC[C@@]21C.CC(=O)[C@H]1CCC2[C@@H]3CC=C4C[C@@H]([O-])CC[C@]4(C)C3CC[C@@]21C.CC(=O)[CH-]C(=O)c1ccccc1.CC(=O)[CH-]C(=O)c1ccccc1.Cl.[Ti+4] (stereo not given in full)	92.8	> 100				46.4	46.1		29.5	21.3	14.2	17.4	18.8	9.44	13.4
COc1ccc(S(=O)(=O)N(CC(=O)O)c2ccccc2)cc1	> 100	> 100	> 100	> 100	> 100	> 100	> 100	> 100	> 100						
Nc1ccccc1C(=O)CCC1C(=O)NC(=S)NC1=O	> 100	> 100	> 100	> 100	> 100	> 100	> 100	> 100	> 100						
